Data: publication PMC9496258, “Trace Immunosensing of Multiple Neonicotinoid Insecticides by a Novel Broad-Specific Antibody Obtained from a Rational Screening Strategy” (Biosensors, 2022)
Values after ≈ are worked out from the molar mass of the structure shown.

Assays:
mAb 1A5 = test: icELISA with mAb 1A5 (hybridoma supernatant), coating antigen imidacloprid-OVA; format: binding, mouse; conditions: for CR: mAb 1A5, cross-reactivity relative to imidacloprid; for IC50: mAb 1A5, hybridoma supernatant, icELISA
Procedure: (§1) Procedures for the immunization, cell fusion and clone selection were similar to those described in our previous publications, and indirect non-competitive and competitive ELISAs were sequentially used for hybridoma screening. The generated mAb was purified by protein G from the ascitic fluid and then stored at −20 °C for further analysis. A mouse antibody isotyping kit was used to determine the isotypes of the mAbs.
(§2) Checkerboard titration was carried out by icELISAs with serial dilutions of the antibody and coating antigen (imidacloprid-OVA). […] The specificity and sensitivity were determined by icELISAs. Briefly, the mixture of standards with different concentrations and equal volume of antibody was added into the reaction wells of pre-coated plates. Standard curves were fitted into a four-parameter logarithmic equation: Y = A2 + [(A1 − A2)/1 + (X/X0)^p], and the half-maximal inhibitory concentration (IC50, defined as the assay sensitivity, was used to calculate cross-reactivity rate(CR).
(§3) Moreover, sensitivity (IC50) and CR to eight neonicotinoids were assessed by icELISAs.

mAb 4B1 = test: icELISA with mAb 4B1 (hybridoma supernatant), coating antigen imidacloprid-OVA; format: binding, mouse; conditions: for CR: mAb 4B1, cross-reactivity relative to imidacloprid; for IC50: mAb 4B1, hybridoma supernatant, icELISA
Procedure: as §1, §2, §3

mAb 5C3 = test: icELISA with mAb 5C3 (hybridoma supernatant), coating antigen imidacloprid-OVA; format: binding, mouse; conditions: for CR: mAb 5C3, cross-reactivity relative to imidacloprid; for IC50: mAb 5C3, hybridoma supernatant, icELISA
Procedure: as §1, §2, §3

mAb 6F11 = test: icELISA with mAb 6F11 (hybridoma supernatant), coating antigen imidacloprid-OVA; format: binding, mouse; conditions: for CR: mAb 6F11, cross-reactivity relative to imidacloprid; for IC50: mAb 6F11, hybridoma supernatant, icELISA
Procedure: as §1, §2, §3

6F11-mAb = test: icELISA with purified 6F11-mAb; format: binding, mouse; conditions: for CR / IC50: 6F11-mAb; for CR: cross-reactivity relative to imidacloprid; for IC50: imidacloprid-OVA 10 µg/mL; for recognition by the antibody (6F11): in words
Procedure: as §1, §2
(§4) Under the optimal working concentrations of 10 µg/mL for imidacloprid-OVA, icELISAs with high sensitivity to neonicotinoid pesticides and metabolites were established.

6F11-rAb [1] = test: icELISA with full-length recombinant 6F11-rAb; format: binding, mouse; conditions: for CR: cross-reactivity relative to imidacloprid; for IC50: imidacloprid-OVA 10 µg/mL
Procedure: Transient production in the HEK 293F suspension cells was performed as described. Briefly, cells were prepared with viable cell density around 1.5 × 10^6 cells/mL and viability above 95 % in 180 mL serum-free culture medium in 500 mL Nunc Erlenmeyer flasks and incubated at 37 °C in 5% CO2 atmosphere and shaken at 130 rpm in an orbital shaker for 2 h. A total of 90 μg of the plasmids (VH:VL = 2:3) mixed with transfection reagent were pre-warmed for 15 min and then transiently transfected into HEK 293F. After 5 days of incubation, the supernatant was collected and purified by protein G. The size of the purified full-length rAb was identified by SDS-PAGE.
as §2, §4

6F11-rAb [2] = test: GNIS (gold lateral-flow immunosensing strip) assay based on 6F11-rAb; format: binding, mouse; conditions: for limit detection of T-line disappearance (visual detection limit): normal visual detection; for IC50: with a strip reader
Text: The preparation method for the conjugate of rAb-gold nanoparticles was based on a previous report. A colloid gold lateral-flow immunosensing strip consisted of three pads (glass fiber membrane, NC membrane and absorption membrane) using a one-sided adhesive polyvinyl chloride sheet as a support. The prepared imidaclothiz-OVA conjugate and goat anti-mouse IgG antibody were immobilized onto the NC membrane as the test line (T line) and control line (C line), respectively. For analysis, standard solutions at different concentrations were added to the 96-well microtiter plate, and then the strip was inserted into the well. After 15 min, the signal was observed using a portable reader (Helmen, Suzhou, China). Standard curves were gained by plotting the signal ratio of the T line to the C line (T/C) against the analyte concentration, and they were also fitted into the four-parameter logarithmic equation.
The 6F11-rAb was used to establish a rapid and reliable GNIS assay, and the limit detection of T-line disappearance was 5 ng/mL for imidacloprid, clothianidin and imidaclothiz and over 100 ng/mL for thiacloprid, acetamiprid and nitenpyram, judged by normal visual detection (Figure 5). […] Therefore, imidacloprid, clothianidin and imidaclothiz, with better sensitivity, were further determined by spiking experiment.

[3] = system: anti-imidacloprid monoclonal antibody; set-up: method as in PMID 31862564; conditions: anti-imidacloprid mAb, lateral-flow immunoassay; cited from earlier work
[4] = system: positive hybridoma clones; test: Dual-target icELISA hybridoma screening; format: binding, mouse; conditions: analyte at 1 µg/mL, nine clones
Procedure: as §1
After cell fusion and the primary screening by non-competitive ELISAs, 37 positive wells of hybridomas giving the absorbance values higher than 0.5 were picked out and filled with fresh culture medium. On the next day, they were quickly rechecked by icELISAs to qualitatively test the ability of recognizing both imidacloprid and acetamiprid. […] Therefore, the top four broad-specific clones were selected and screened with imidacloprid and acetamiprid until stable hybridoma lines were obtained. Then the culture supernatants were collected for characterization of the four kinds of broad-specific mAbs.

anti-imidaclothiz mAb = system: anti-imidaclothiz mAb; set-up: method as in PMID 21299253; conditions: anti-imidaclothiz mAb-based ELISA; cited from earlier work

Compound | CR (mAb 1A5) [%] | IC50 (mAb 1A5) [ng/mL] | CR (mAb 4B1) [%] | IC50 (mAb 4B1) [ng/mL] | CR (mAb 5C3) [%] | IC50 (mAb 5C3) [ng/mL] | CR (mAb 6F11) [%] | IC50 (mAb 6F11) [ng/mL] | CR (6F11-mAb) [%] | IC50 (6F11-mAb) [ng/mL] | CR (6F11-rAb [1]) [%] | IC50 (6F11-rAb [1]) [ng/mL] | limit detection of T-line disappearance (visual detection limit) (6F11-rAb [2]) | IC50 (6F11-rAb [2]) [ng/mL] | other results
N#C/N=C1\SCCN1Cc1ccc(Cl)nc1 [Thiacloprid, thiacloprid] | 2.7 | 42.91 | 10.2 | 28.37 | 1.8 | 13.39 | 21.2 | 2.78 | 20.6 | 1.30 | 12.5 | 2.89 | over 100 ng/mL |  | 
CN/C(=N\[N+](=O)[O-])NCc1cnc(Cl)s1 [Clothianidin, clothianidin] | 63.3 | 1.80 | 4.9 | 59.41 | 20.2 | 1.19 | 41.3 | 1.43 | 58.3 | 0.46 | 41.7 | 0.86 | 5 ng/mL | 0.5 (≈ 2 nM) | cross-reactivity [3]: 4.1%
O=[N+]([O-])/N=C1\NCCN1Cc1cnc(Cl)s1 [Imidaclothiz, imidaclothiz] | 126.7 | 0.90 | 7.1 | 41.09 | 8.6 | 2.79 | 122.9 | 0.48 | 115.1 | 0.23 | 119.8 | 0.30 | 5 ng/mL | 0.7 (≈ 2.67 nM) | 
CCN(Cc1ccc(Cl)nc1)/C(=C/[N+](=O)[O-])NC [Nitenpyram, nitenpyram] | 3.7 | 31.19 | <0.1 | >1000 | 0.8 | 30.66 | 8.2 | 7.16 | 4.8 | 5.57 | 5.1 | 7.07 | over 100 ng/mL |  | CR (mAb 4B1; listed as nitenpyram): no CR
CN1COCN(Cc2cnc(Cl)s2)/C1=N\[N+](=O)[O-] [Thiamethoxam, thiamethoxam] | <0.1 | >1000 | <0.1 | >1000 | <0.1 | >1000 | <0.1 | >1000 | <0.1 | >1000 | <0.1 | >1000 |  |  | CR (mAb 1A5; listed as thiamethoxam): without obvious CR; CR (mAb 4B1; listed as thiamethoxam): no CR; CR (mAb 5C3; listed as thiamethoxam): without obvious CR; CR (mAb 6F11; listed as thiamethoxam): without obvious CR; recognition by the antibody (6F11) (6F11-mAb): cannot recognize
O=[N+]([O-])NC1=NCCN1Cc1ccc(Cl)nc1 [Imidacloprid, imidacloprid] | 100.0 | 1.14 | 100.0 | 2.90 | 100.0 | 0.24 | 100.0 | 0.59 | 100.0 | 0.27 | 100.0 | 0.36 | 5 ng/mL | 0.9 (≈ 3.52 nM) | inhibition rate [4]: > 50%; cross-reactivity (anti-imidaclothiz mAb): 91.7%
C/C(=N\C#N)N(C)Cc1ccc(Cl)nc1 [Acetamiprid, acetamiprid] | 2.6 | 43.34 | 3.1 | 92.77 | 0.4 | 58.52 | 9.5 | 6.24 | 4.5 | 5.92 | 4.0 | 9.04 | over 100 ng/mL |  | cross-reactivity [3]: 1.1%
O=[N+]([O-])/C=C1\NCCN1Cc1ccc(Cl)nc1 [6-Cl-PMNI] |  |  |  |  |  |  |  |  | 132.9 | 0.20 | 100.6 | 0.36 |  |  | 
CN/C(=N/CC1CCOC1)N[N+](=O)[O-] (centres unmarked) [Dinotefuran, dinotefuran] | <0.1 | >1000 | <0.1 | >1000 | <0.1 | >1000 | <0.1 | >1000 | <0.1 | >1000 | <0.1 | >1000 |  |  | CR (mAb 1A5; listed as dinotefuran): without obvious CR; CR (mAb 4B1; listed as dinotefuran): no CR; CR (mAb 5C3; listed as dinotefuran): without obvious CR; CR (mAb 6F11; listed as dinotefuran): without obvious CR
O=[N+]([O-])/N=C1\NCOCN1Cc1cnc(Cl)s1 [N-desmethyl thiamethoxam] |  |  |  |  |  |  |  |  | 124.8 | 0.21 | 67.8 | 0.53 |  |  | recognition by the antibody (6F11) (6F11-mAb): very high affinity
